Experimental data taken from US6982273B1, “Compositions and methods containing bioavailable Se-methyl-L-selenocysteine for human and veterinary use” (Sami Labs Ltd., priority 2002, dated 2006).

Legend:
[1] = system: rats with macrophage associated liver injury and endotoxemia; experiment: Suppression of macrophage associated liver injury and endotoxemia (P. acnes + LPS) in rats; format: in vivo, rat; conditions: Se-methyl-L-selenocysteine 4 mg/kg, composition 2 mg/kg
Method: The composition used consisted of Se-methyl-L-selenocysteine of the parent application to which piperine from black pepper fruit was added such that the animals received a co-administered daily dose of 5 mg of piperine.
Study Design: Male Wistar King A rats (200–250 g) were maintained on a basal pelleted diet and water ad libitum under normal temperature and lighting conditions. All rats received an injection of 40 mg/kg body weight of heat killed Propionibacterium acnes (ATCC 11827), 20 mg/ml suspension in saline via the tail vein on day 1. Seven days later they received an intravenous injection of 350 mcg/kg body weight of lipopolysaccharide (LPS, Difco Laboratories, MI, USA), 200 mcg/ml solution in saline). 5 rats received a daily dose of 4 mg/kg body weight of Se-methyl-L-selenocysteine and 5 rats received 2 mg/kg body weight of the composition of the invention, orally for 3 days in the feed, 4 control rats received no supplementation, prior to induction of liver injury, 4 normal controls were not subjected to liver injury. Serum levels of TNF-α were measured. TNF-α is thought to be the principal mediator of the deleterious effects of LPS.

[2] = system: dimethyl-benz(a)anthracene-induced mammary tumor; conditions: 1–2 ppm Se in diet from 1 week before DMBA until sacrifice; order of efficacy: Se-methylselenocysteine > selenite > selenocysteine > dimethyl selenoxide; cited from earlier work
glutathione peroxidase = conditions: selenium-depleted animals; efficiency: Se-methylselenocysteine > dimethyl selenoxide > trimethylselenonium; cited from earlier work

Structure (SMILES)	chemopreventive activity (tumor inhibition) [2]	ability to restore glutathione peroxidase activity (glutathione peroxidase)	also measured
C[Se]C[C@H](N)C(=O)O [Se-methyl-L-selenocysteine]	tumor inhibition	fully replete	Catalase ([1]; oral 3 days): 31.16 ± 3.95 micromole of H2O2 consumed/min; Glutathione (GSH) ([1]; oral 3 days): 7.43 ± 0.69 mcg/mg protein; Glutathione peroxidase ([1]; oral 3 days): 8.13 ± 0.71 micromole of GSH oxidized/min/; Serum Lipid peroxides ([1]; oral 3 days): 2.71 ± 0.32 MDA formed/mg protein; Superoxide dismutase ([1]; oral 3 days): 4.91 ± 0.48 Units/min/mg protein; TNF-alpha (serum) ([1]; oral 3 days): 81 ± 6 ng/mL; Survival rate ([1]; oral in feed 3 days before injury, survivors/n): 3/5
C[Se](C)=O [dimethyl selenoxide]	tumor inhibition	fully replete	–
O=[Se](O)O [selenite]	tumor inhibition	–	–
N[C@@H](C[SeH])C(=O)O [selenocysteine]	tumor inhibition	–	–
C[Se+](C)C [trimethylselenonium]	–	fully replete	–
